Here are results for one compound from patent US20150065717A1, “NIPECOTIC ACID DERIVATIVE AND USE THEREOF FOR MEDICAL PURPOSES” (Toray Industries, Inc., priority 2012, published 2015).

Assay [1] has as its system rat diabetic nephropathy model. The experiment in a line: Pharmacological effect in rat diabetic nephropathy model (streptozotocin). In kind it is in vivo, rat (spontaneously hypertensive rat). As to conditions: mean±standard error, n=6. How it is done: Example Compound 1 was administered to a rat diabetic nephropathy model (International Journal of Molecular Medicine, 2007, vol. 19, p. 571-579; Hypertension, 1998, vol. 32, p. 778-785), and the therapeutic effect of the nipecotic acid derivative (I) or a pharmaceutically acceptable salt thereof on chronic renal disease with diabetic nephropathy was evaluated.
Rats (spontaneously hypertensive rat, male, 12 or 13 weeks old; Charles River Laboratories Japan, Inc.) with diabetic nephropathy induced by administration of an aqueous streptozotocin (Enzo Life Sciences, Inc.) solution (40 mg/kg) into the tail vein were provided as “group with induced diabetic nephropathy”. On the other hand, rats to which water for injection was similarly administered were provided as “untreated group”.
Six weeks after administration of streptozotocin, urine was collected using a metabolic cage at room temperature for 24 hours. The urinary albumin concentration in the collected urine was measured by the ELISA method. From the urinary albumin concentration and the urine weight, the amount of urinary albumin excretion was calculated.
To rats showing pathological conditions of diabetic nephropathy in the group with induced diabetic nephropathy, Example Compound 1 (10 mg/kg) or a positive control compound imidapril (2 mg/kg) was orally administered once per day for 20 days from Day 8 after the administration of streptozotocin. […]
After the last administration of the test substance on Day 27 after administration of streptozotocin, urine was collected using a metabolic cage at room temperature for 24 hours. The urinary albumin concentration in the collected urine was measured by the ELISA method. From the urinary albumin concentration and the urine weight, the amount of urinary albumin excretion was calculated. In addition, on Day 18 after administration of streptozotocin, the systemic systolic pressure was measured by the tail-cuff method. On Day 29 after administration of streptozotocin, blood was collected from the abdominal aorta of each rat, and the plasma glucose concentration was measured. […]

The test system of assay [2] is rat monocrotaline-administered pulmonary hypertension model. The experiment in a line: Rat monocrotaline-administered pulmonary hypertension model, administration from advanced stage. In kind it is in vivo, rat (Wistar strain). As to conditions: 10 mg/kg orally once per day for 18 or 19 days from Day 10 after monocrotaline; t-test p<0.05; FIG. 7. How it is done:
Rats (Wistar strain, male, 5 weeks old; JAPAN SLC, Inc.) with pulmonary hypertension induced by subcutaneous administration of an aqueous monocrotaline (Sigma Corporation) solution (60 mg/kg) to the back were provided as “group with induced pulmonary hypertension”. On the other hand, rats to which water for injection was similarly administered were provided as “normal group”.
To rats in the group with induced pulmonary hypertension, Example Compound 1 (3 or 10 mg/kg) or a positive control compound tadalafil (10 mg/kg) was orally administered once per day. Administration of Example Compound 1 (3 or 10 mg/kg) was carried out for 18 or 19 days from Day 10 after the administration of monocrotaline. Administration of tadalafil (10 mg/kg) was carried out for 28 or 29 days from the day of administration of monocrotaline. […]
On the last day of administration of the test compound, blood was collected from the abdominal vena cava of each rat under anesthesia, and the rat was then euthanized, followed by removal of the heart for measurement of the wet weights of the right ventricle, left ventricle and septum to determine the right ventricular weight ratio (right ventricular weight/(septum weight+left ventricular weight)). The 14,15-DHET concentration in the collected blood was measured by the ELISA method. […]

Each structure is given as a SMILES string.

Take `CCC(=O)NC1(C(=O)N2CCC[C@@H](C(=O)NCc3ccc(C#N)cc3OC(F)(F)F)C2)CCC1` [Example Compound 1, (R)—N-(4-cyano-2-(trifluoromethoxy)benzyl)-1-(1-propionamidocyclobutanecarbonyl)piperidine-3-carboxamide]: the “amount of urinary albumin excretion” value in assay [1] (Day 27 after streptozotocin, orally once per day for 20 days from Day 8 (Example Compound 1 10 mg/kg, imidapril 2 mg/kg)) is 5.41 ± 1.13 mg/day. In assay [1] (day 18 after streptozotocin, 10 mg/kg orally once per day, tail-cuff), this compound came in with a systemic systolic pressure of 199±6 mmHg. Besides, the “right ventricular weight ratio vs pulmonary hypertension control group” value in assay [2] is “statistically significantly lower”.
